# Measured values as given in patent US9862748B2, “Peptide compounds and methods of production and use thereof” (priority 2012, dated 2018).
# Columns and labels:
# [1] = test system: Acinetobacter baumannii ATCC® BAA-747™; assay type: cell-based; settings: 3.12-25 μM; 60 minutes
# Summary of the method: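 Peptides at 25, 12.5, 6.25 and 3.12 μM were incubated with 1×10^6 CFU/ml bacteria at pH 5.5 or 7.2, with tryptone saline as negative control and gentamicin (4 μg/ml) as positive control. Incubation was 60 min for A. baumannii and 180 min for P. aeruginosa. Surviving CFU counted after overnight plating, expressed as log reduction in CFU/ml.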
# corneas = test: Corneal cytokines after intrastromal injection (MILLIPLEX MAP mouse cytokine assay); assay type: in vivo; settings: intrastromal 0.5 μl, 10^−4, 10^−5, 10^−6 M; 24 and 48 hours
# Description: Corneas were injected intrastromally with 0.5 μl of peptide 95-122 at a final concentration of 10^−4 M, 10^−5 M, and 10^−6 M and vehicle (saline) control. Corneas were collected and flash frozen at 24 hours and 48 hours. Corneal lysates were analyzed for cytokines using the MILLIPLEX® MAP mouse cytokine assay for IL-7 (A), IL-15 (B), IFN-γ (C), MIP1-α (D) (EMD Millipore Corp., Billerica, Mass.). The means of independent experimental values are shown ±SEM. ***P<0.001, **P<0.01, *P<0.05 by unpaired t-test as compared to vehicle treated controls. […] Corneas were injected intrastromally with 0.5 μl of peptide 95-122 at a final concentration of 10^−4 M, 10^−5 M, and 10^−6 M and vehicle (saline) control. Corneas were collected and flash frozen at 24 hours and 48 hours. Corneal lysates were analyzed for cytokines using the MILLIPLEX® MAP mouse cytokine assay for MIP1-β (EMD Millipore Corp., Billerica, Mass.). **P<0.01, *P<0.05 by unpaired t-test as compared to vehicle treated controls. […] Corneas were injected intrastromally with 0.5 μl of peptide 95-122 at a final concentration of 10^−4 M, 10^−5 M, and 10^−6 M and vehicle (saline) control. Corneas were collected and flash frozen at 24 hours and 48 hours. Corneal lysates were analyzed for cytokines using the MILLIPLEX® MAP mouse cytokine assay for KC (A), IL-1β (B), and GM-CSF (C) (EMD Millipore Corp., Billerica, Mass.). **P<0.01, *P<0.05 by unpaired t-test as compared to vehicle treated controls.
# swine skin wounds [2] = test: Swine full thickness excisional dermal wound model, wound area; assay type: in vivo
# Description: In this Example, peptide compounds of the presently disclosed and claimed inventive concept(s) were evaluated as to their activity on the dermal wound healing process in a clinically relevant swine full thickness excisional wound model. Three different peptide formulations (Group B, Peptide 95-122 (SEQ ID NO: 26); Group C, Peptide 120-146WH (SEQ ID NO: 31); and Group D, Peptide 120-146QH-5RMP (SEQ ID NO: 33)) were each evaluated at the same concentration (3 mg/ml). Sterile saline served as the control (Group A).
# (§1) Full thickness excisional wounds were induced on the dorsum of swine (N=3) using a 1.0 cm biopsy punch. Treatments were administered (0.20 ml) to each wound (N=6 wounds per group), and the wounds were dressed with standard occlusive dressing ([…]™, 3M Corporation, St. Paul, Minn.). Treatments were reapplied daily and dressings changed. Clinical wound healing observations and wound area (2 mm) measurements were performed on days 0, 3, 5, 7, 10, and 14 post-wounding. Wound area (2 mm) data were expressed as percentage (%) of wound healing. Animals were terminated on day 14 with wounds harvested and processed for histological evaluation. […] All peptide formulation treatment groups healed faster with greater rate of closure and re-epithelialization over time, as compared to the saline control (Group A).
# swine skin wounds [3] = test: Swine dermal wound model, histological evaluation; assay type: in vivo; settings: day 14 post-wounding
# Description: The characteristics that were measured are required to indicate features of a well-healed wound. Inflammation should be low and re-epithelialization high.
# as §1
# The histology correlated with the clinical observations. […] There were minimal differences in the amount or character of granulation tissue, inflammation, and angiogenesis. All the wounds were well filled and vascularized.
# [4] = 3 mg/ml, 0.20 ml per wound, reapplied daily
sequence,measurement,setting,value
LDREANLTSSVTILPLPLQNATVEAGTR (listed as Homo sapiens) [Peptide 95-122],"activity against Acinetobacter at either pH (5.5, 7.2)",[1],not active
same,GM-CSF in corneal lysates,corneas,significantly increases
same,IFN-γ in corneal lysates,corneas,significantly increases
same,IL-1β in corneal lysates,corneas,significantly increases
same,IL-7 in corneal lysates,corneas,significantly increases
same,IL-15 in corneal lysates,corneas,significantly increases
same,KC in corneal lysates,corneas,significantly increases
same,MIP1-0 (MIP1-β) in corneal lysates,corneas,significantly increases
same,MIP1-α in corneal lysates,corneas,significantly increases
same,Mean Wound Healing (%) Day 0,swine skin wounds [2]; [4],0.0%
same,Mean Wound Healing (%) Day 3,swine skin wounds [2]; [4],28.9%
same,Mean Wound Healing (%) Day 5,swine skin wounds [2]; [4],41.5%
same,Mean Wound Healing (%) Day 7,swine skin wounds [2]; [4],70.8%
same,Mean Wound Healing (%) Day 10,swine skin wounds [2]; [4],99.7%
same,Mean Wound Healing (%) Day 14,swine skin wounds [2]; [4],100.0%
same,dermal wound healing,"swine skin wounds [2]; topical 3 mg/ml over 14 days, vs saline",accelerate dermal wound healing
same,epidermal resurfacing and maturation of the epidermis versus saline control,swine skin wounds [3],greater extent of epidermal resurfacing and maturation of the epidermis
same,"Histopathology Results, Mean Angiogenesis",swine skin wounds [3]; 3 mg/ml,2.3
same,"Histopathology Results, Mean Epithelization",swine skin wounds [3]; 3 mg/ml,4.0
same,"Histopathology Results, Mean Granulation",swine skin wounds [3]; 3 mg/ml,4.0
same,"Histopathology Results, Mean Inflammation",swine skin wounds [3]; 3 mg/ml,0.5
